US20130109682A1, “CYCLIC ETHER COMPOUNDS USEFUL AS KINASE INHIBITORS” (NOVARTIS AG, priority 2010, published 2013)
pEC50, pIC50: −log10 of the molar value. Read-outs that look alike come from different tables or passages of the source.

How the values were obtained:
PKCα = PKCα (Homo sapiens, UniProt P17252); experiment: PKCα kinase Caliper assay; format: biochemical; settings: read-out: PKC IC50
Method: PKCα and cABLT315 Kinase Caliper Assays
Assays were performed in 384 well microtiter plates. Each assay plate contained 8-point serial dilutions for test compounds, as well as two 16-point serial dilutions of staurosporine as reference compound, plus 16 high- and 16 low controls. Liquid handling and incubation steps were done on a Thermo CatX workstation equipped with a Innovadyne Nanodrop Express. Between pipetting steps, tips were cleaned in wash cycles using wash buffer. Plates with terminated kinase reactions were transferred to the Caliper LC3000 workstations for reading. Phosphorylated and unphosphorylated peptides were separated using the Caliper microfluidic mobilitishift technology and Kinase activities were calculated from the amounts of formed phospho-peptide.
1. 0.05 μA Compound (start with 1.8 mM in 90% DMSO/10% H2O)
2. +4.5 μl 2× peptide/ATP solution
3. +4.5 μl 2× enzyme solution
4. Incubate for 60 min at 30° C.
4. +16 μl stop/run buffer
Independent of the kinase, all reactions were done performed in 50 mM HEPES, pH 7.5, 1 mM DTT, 0.02% Tween20, 0.02% BSA, and 0.6% DMSO.

GSK3β = GSK3β (Homo sapiens, UniProt P49841); experiment: GSK3β ATP depletion assay; format: biochemical; settings: read-out: GSK3b IC50
In short: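 Kinase activity is read as ATP consumption: luciferase luminescence reports the ATP remaining once roughly half of the 2 μM ATP is used. Reaction mix: 5 nM GSK3β, 10 μM b-CREB peptide, 50 mM Tris pH 7.5, 15 mM MgCl2, 1 mM DTT, 0.1% BSA, 2.5% DMSO. Enzyme and peptide are preincubated 15 min before ATP is added.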

[1] = test system: KMS11 (human myeloma cell line); experiment: Cell proliferation assay (CellTiter-Glo), KMS11; format: cell-based; settings: Homo sapiens, KMS-11
In short: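 EC50 derived from CellTiter-Glo luminescence after 3-day exposure at 37° C. Compound was diluted to 2× in medium and added to an equal volume of cells. KMS11 myeloma cells were plated on assay day at 2000/well in IMDM with 10% FBS and sodium pyruvate.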

PDGFRaV561D kinase = PDGFRaV561D kinase (Homo sapiens, UniProt P16234, V561D); experiment: PDGFRaV561D kinase inhibition assay (LanthaScreen TR-FRET); format: biochemical; settings: read-out: PDGFRa IC50
Method: PDGFRaV561D Kinase Inhibition Assay
LanthaScreen™ is the detection of Time-Resolved Fluorescence Resonance Energy Transfer (TR-FRET) using lanthanide chelates to measure interactions between various binding partners. The application of TR-FRET to assay kinase activity was first described by Mathis (1995). A TR-FRET assay was used to measure PDGFRaV561D kinase inhibitory activity. The assay panel was run on a Biomek FX liquid handling workstations. To the assay plates containing […] compound or control solutions, 4.5 μL of buffer A (50 mM TRIS-HCl pH 7.4, 2 mM DTT, 0.02% Tween 20, 0.02 mM Na3VO4, H2O nanpure) including a generic concentration of ATP (2 μM f.c.) was added per well, followed by […] of buffer B (4 uM ATP in Buffer A) including a generic concentration of polyEAY (50 nM f.c.), PDGFRaV561D kinase, and divalent cations. Final concentration of kinase and cations were: [PDGFRaV561D kinase]=4.4 nM, [Mn]=10 mM. After 1 hour of incubation the kinase reactions were stopped by the addition of 4.5 μL of stop solution D (50 mM EDTA, 20 mM TRIS-HCl pH 7.4, 0.04% NP-40) immediately followed by 4.5 μL of buffer A (50 mM TRIS-HCl pH 7.4, 2 mM DTT, 0.02% Tween 20, 0.02 mM Na3VO4, H2O nanpure) including the Tb-labeled P-20 antibody to give a total detection volume of […]. After an incubation time of 45 min in the dark, the plates were transferred into the Pherastar fluorescence reader for counting. The effect of compound on the enzymatic activity was obtained from the linear progress curves and determined from one reading (end point measurement).

[2] = KMS11 cells, cell proliferation, read-out: KMS11-Luc EC50

Sequence of PDGFRaV561D kinase (P16234 24-1089 V561D): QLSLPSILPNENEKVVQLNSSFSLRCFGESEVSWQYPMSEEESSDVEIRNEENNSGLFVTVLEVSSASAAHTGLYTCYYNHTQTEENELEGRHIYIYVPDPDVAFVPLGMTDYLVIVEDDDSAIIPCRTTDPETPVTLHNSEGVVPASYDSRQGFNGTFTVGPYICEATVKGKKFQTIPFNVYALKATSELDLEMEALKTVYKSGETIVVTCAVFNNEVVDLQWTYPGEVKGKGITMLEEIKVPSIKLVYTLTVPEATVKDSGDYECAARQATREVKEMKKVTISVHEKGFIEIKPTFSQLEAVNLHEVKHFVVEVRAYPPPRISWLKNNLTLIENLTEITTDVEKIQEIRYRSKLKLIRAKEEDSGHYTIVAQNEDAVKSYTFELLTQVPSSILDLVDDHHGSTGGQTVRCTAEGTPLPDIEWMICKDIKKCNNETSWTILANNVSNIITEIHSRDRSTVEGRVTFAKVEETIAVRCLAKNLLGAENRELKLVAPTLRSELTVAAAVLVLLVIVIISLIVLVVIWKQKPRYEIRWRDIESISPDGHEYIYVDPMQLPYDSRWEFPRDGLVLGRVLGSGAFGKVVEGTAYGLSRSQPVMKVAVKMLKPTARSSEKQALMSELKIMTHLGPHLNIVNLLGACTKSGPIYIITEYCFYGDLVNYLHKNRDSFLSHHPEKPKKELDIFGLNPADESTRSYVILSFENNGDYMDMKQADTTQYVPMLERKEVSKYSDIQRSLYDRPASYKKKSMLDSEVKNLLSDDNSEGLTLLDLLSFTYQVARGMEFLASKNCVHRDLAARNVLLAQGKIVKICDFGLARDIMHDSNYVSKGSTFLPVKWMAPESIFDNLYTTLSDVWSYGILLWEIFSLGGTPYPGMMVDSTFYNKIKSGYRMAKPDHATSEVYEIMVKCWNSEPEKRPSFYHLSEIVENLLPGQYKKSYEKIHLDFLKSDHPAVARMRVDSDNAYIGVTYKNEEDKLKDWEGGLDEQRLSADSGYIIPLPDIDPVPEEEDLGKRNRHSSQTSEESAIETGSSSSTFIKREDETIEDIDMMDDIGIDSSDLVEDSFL
Sequence of GSK3β (P49841 whole entry, species assumed): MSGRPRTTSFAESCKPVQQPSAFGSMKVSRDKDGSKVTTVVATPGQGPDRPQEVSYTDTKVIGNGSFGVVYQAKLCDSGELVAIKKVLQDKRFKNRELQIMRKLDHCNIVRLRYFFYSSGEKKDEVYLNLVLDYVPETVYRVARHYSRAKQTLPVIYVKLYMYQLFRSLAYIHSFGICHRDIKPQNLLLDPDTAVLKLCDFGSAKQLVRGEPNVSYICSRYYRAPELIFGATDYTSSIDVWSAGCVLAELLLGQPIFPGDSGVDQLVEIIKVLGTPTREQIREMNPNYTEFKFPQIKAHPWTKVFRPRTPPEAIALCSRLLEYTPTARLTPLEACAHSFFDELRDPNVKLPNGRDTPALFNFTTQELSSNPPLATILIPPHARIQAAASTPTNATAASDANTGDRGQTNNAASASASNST

Row | pIC50 (PKCα; PKCα Caliper assay) | pIC50 (GSK3β; ATP depletion assay) | pEC50 [1, 2] | pIC50 (PDGFRaV561D kinase) | pIC50 (PKCα) | pIC50 (GSK3β) | pEC50 ([1]; KMS11-Luc cells) | SMILES
1 | 6.66 | 6.92 | 5.92 | 6.82 |  |  |  | CC[C@H]1O[C@@H](c2ccncc2NC(=O)c2nc(-c3ccccc3)cnc2N)C[C@@H](N)[C@]1(C)O [Example 348, 3-amino-N-(4-((2R,4R,5S,6R)-4-amino-6-ethyl-5-hydroxy-5-methyltetrahydro-2H-pyran-2-yl)pyridin-3-yl)-6-phenylpyrazine-2-carboxamide]
2 | 7.00 | 7.36 | 6.15 | 5.36 |  |  |  | CC(C)[C@H]1C[C@@H](N)C[C@@H](c2ccncc2NC(=O)c2nc(-c3ccccc3)cnc2N)O1 [Example 292, 3-amino-N-(4-((2S,4R,6R)-4-amino-6-isopropyltetrahydro-2H-pyran-2-yl)pyridin-3-yl)-6-phenylpyrazine-2-carboxamide]
3 | 7.66 | 8.49 | 6.85 | 7.59 |  |  |  | CC(C)(C)[C@H]1O[C@@H](c2ccncc2NC(=O)c2nc(-c3ccccc3)cnc2N)C[C@@H](N)[C@@H]1O [Example 354, 3-amino-N-(4-((2R,4R,5S,6R)-4-amino-6-tert-butyl-5-hydroxytetrahydro-2H-pyran-2-yl)pyridin-3-yl)-6-phenylpyrazine-2-carboxamide]
4 | 6.07 | 9.05 | 6.00 | 6.09 |  |  |  | CCC[C@H]1O[C@@H](c2ccncc2NC(=O)c2nc(-c3ccccc3)cnc2N)C[C@@H](O)[C@@H]1O [Example 340, 3-amino-N-(4-((2R,4R,5S,6R)-4,5-dihydroxy-6-propyltetrahydro-2H-pyran-2-yl)pyridin-3-yl)-6-phenylpyrazine-2-carboxamide]
5 | 7.47 | 8.36 | 5.80 | 7.64 |  |  |  | Nc1ncc(-c2ccccc2)nc1C(=O)Nc1cnccc1[C@H]1C[C@@H](N)[C@@]2(O)CCC[C@H]2O1 [Example 183, 3-amino-N-(4-((2R,4R,4aS,7aR)-4-amino-4a-hydroxyoctahydrocyclopenta[b]pyran-2-yl)pyridin-3-yl)-6-phenylpyrazine-2-carboxamide]
6 |  |  |  | 5.10 | 5.59 | 7.31 | 5.44 | Nc1ncc(-c2ccccc2)nc1C(=O)Nc1cnccc1[C@@H]1C[C@H](O)[C@]2(O)CCCC[C@@H]2O1 [Example 176, 3-amino-N-(4-((2S,4S,4aR,8aS)-4,4a-dihydroxyoctahydro-2H-chromen-2-yl)pyridin-3-yl)-6-phenylpyrazine-2-carboxamide]
7 | 6.15 | 7.15 | 5.05 | 5.77 |  |  |  | CC[C@]1(O)[C@H](C)O[C@H](c2ccncc2NC(=O)c2nc(-c3ccccc3)cnc2N)C[C@@H]1N [Example 189, 3-amino-N-(4-((2S,4S,5R,6S)-4-amino-5-ethyl-5-hydroxy-6-methyltetrahydro-2H-pyran-2-yl)pyridin-3-yl)-6-phenylpyrazine-2-carboxamide]
8 | 7.37 | 8.36 | 6.47 | 7.09 |  |  |  | CC(C)[C@@H]1C[C@H](N)C[C@H](c2ccncc2NC(=O)c2nc(-c3ccccc3)cnc2N)O1 [Example 291, 3-amino-N-(4-((2R,4S,6S)-4-amino-6-isopropyltetrahydro-2H-pyran-2-yl)pyridin-3-yl)-6-phenylpyrazine-2-carboxamide]
9 | 7.26 | 8.19 | 5.27 | 5.89 |  |  |  | CC(C)(C)[C@@H]1O[C@H](c2ccncc2NC(=O)c2nc(-c3ccccc3)cnc2N)C[C@@H](N)[C@H]1O [Example 227, 3-amino-N-(4-((2S,4R,5R,6S)-4-amino-6-tert-butyl-5-hydroxytetrahydro-2H-pyran-2-yl)pyridin-3-yl)-6-phenylpyrazine-2-carboxamide]
10 | 6.43 | 7.41 | 5.23 | 6.00 |  |  |  | C[C@@H]1O[C@H](c2ccncc2NC(=O)c2nc(-c3ccccc3)cnc2N)C[C@H](N)[C@@]1(C)O [Example 229, 3-amino-N-(4-((2S,4S,5R,6S)-4-amino-5-hydroxy-5,6-dimethyltetrahydro-2H-pyran-2-yl)pyridin-3-yl)-6-phenylpyrazine-2-carboxamide]
11 |  |  |  | 6.40 | < 5.00 | 6.54 | 6.19 | N[C@@H]1C[C@H](c2ccncc2NC(=O)c2ccc(F)c(-c3c(F)cccc3F)n2)O[C@@H]2CCC[C@]12O [Example 210, N-(4-((2R,4R,4aS,7aR)-4-amino-4a-hydroxyoctahydrocyclopenta[b]pyran-2-yl)pyridin-3-yl)-6-(2,6-difluorophenyl)-5-fluoropicolinamide]
12 | 6.19 | 8.52 | 5.00 | 6.06 |  |  |  | Nc1ncc(-c2ccccc2)nc1C(=O)Nc1cnccc1[C@H]1C[C@@H](O)[C@H](O)[C@@H](CO)O1 [Example 341, 3-amino-N-(4-((2R,4R,5S,6R)-4,5-dihydroxy-6-(hydroxymethyl)tetrahydro-2H-pyran-2-yl)pyridin-3-yl)-6-phenylpyrazine-2-carboxamide]
13 |  |  |  | 7.48 | 6.64 | 9.00 | 6.96 | Nc1ncc(-c2ccccc2)nc1C(=O)Nc1cnccc1[C@H]1C[C@@H](O)[C@@]2(O)CCC[C@H]2O1 [Example 195, 3-amino-N-(4-((2R,4R,4aS,7aR)-4,4a-dihydroxyoctahydrocyclopenta[b]pyran-2-yl)pyridin-3-yl)-6-phenylpyrazine-2-carboxamide]
14 | < 5.00 | 6.01 | 6.38 | 6.20 |  |  |  | C[C@H]1O[C@@H](c2ccncc2NC(=O)c2ccc(F)c(-c3c(F)cccc3F)n2)C[C@@H](N)[C@]1(C)O [Example 219, N-(4-((2R,4R,5S,6R)-4-amino-5-hydroxy-5,6-dimethyltetrahydro-2H-pyran-2-yl)pyridin-3-yl)-6-(2,6-difluorophenyl)-5-fluoropicolinamide]
15 | 7.22 | 8.04 | 6.33 | 7.14 |  |  |  | Nc1ncc(-c2ccccc2)nc1C(=O)Nc1cnccc1[C@H]1C[C@@H](N)[C@H](O)[C@@H](C2CC2)O1 [Example 346, 3-amino-N-(4-((2R,4R,5S,6R)-4-amino-6-cyclopropyl-5-hydroxytetrahydro-2H-pyran-2-yl)pyridin-3-yl)-6-phenylpyrazine-2-carboxamide]
16 |  |  |  | 5.40 | < 5.00 | 6.25 | 5.55 | Nc1cnc(-c2c(F)cccc2F)nc1C(=O)Nc1cnccc1[C@H]1C[C@@H](N)[C@@]2(O)CCC[C@H]2O1 [Example 213, 5-amino-N-(4-((2R,4R,4aS,7aR)-4-amino-4a-hydroxyoctahydrocyclopenta[b]pyran-2-yl)pyridin-3-yl)-2-(2,6-difluorophenyl)pyrimidine-4-carboxamide]
17 |  |  |  | 7.32 | 6.51 | 8.85 |  | Nc1ncc(-c2ccccc2)nc1C(=O)Nc1cnccc1[C@H]1C[C@@H](O)[C@@]2(O)CCCC[C@H]2O1 [Example 173, 3-amino-N-(4-((2R,4R,4aS,8aR)-4,4a-dihydroxyoctahydro-2H-chromen-2-yl)pyridin-3-yl)-6-phenylpyrazine-2-carboxamide]
